In ChEMBL document CHEMBL4138181, “Synthesis, molecular docking, and QSAR study of sulfonamide-based indoles as aromatase inhibitors” (Eur J Med Chem, 2018):

What was measured:
aromatase [1] = assay: Selectivity index, ratio of IC50 for GFP-expressing African green monkey Vero cells to IC50 for aromatase (unknown origin); assay type: toxicity; conditions: read-out: Ratio IC50
Vero = assay: Cytotoxicity against GFP-expressing African green monkey Vero cells after 4 days by fluorescence assay; assay type: cell-based; conditions: Chlorocebus sabaeus, 96 h
Aromatase [2] = target: T1, Aromatase (Homo sapiens, UniProt P11511); assay: Inhibition of aromatase (unknown origin) using O-benzyl fluorescein benzyl ester as substrate in presence of NADPH-generating system by fluorescence assay
T1 sequence (P11511 whole entry): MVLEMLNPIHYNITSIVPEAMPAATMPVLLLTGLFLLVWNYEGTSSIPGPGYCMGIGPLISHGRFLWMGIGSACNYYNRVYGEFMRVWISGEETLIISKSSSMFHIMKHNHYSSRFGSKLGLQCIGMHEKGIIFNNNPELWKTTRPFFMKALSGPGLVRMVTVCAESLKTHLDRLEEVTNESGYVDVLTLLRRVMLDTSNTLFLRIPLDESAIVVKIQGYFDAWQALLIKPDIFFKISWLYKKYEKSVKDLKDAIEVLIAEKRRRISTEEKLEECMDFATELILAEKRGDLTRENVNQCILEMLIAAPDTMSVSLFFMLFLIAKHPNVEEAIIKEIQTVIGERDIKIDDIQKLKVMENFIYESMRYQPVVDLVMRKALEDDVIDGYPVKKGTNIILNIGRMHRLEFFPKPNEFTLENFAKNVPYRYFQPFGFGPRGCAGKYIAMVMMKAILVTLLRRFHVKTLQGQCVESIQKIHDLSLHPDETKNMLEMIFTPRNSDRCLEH

Row | Structure (SMILES) | selectivity ratio (aromatase [1]) | IC50 (Vero) | IC50 (Aromatase [2])
1 | O=S(=O)(NCCc1c(C(c2ccc(F)cc2)c2[nH]c3ccccc3c2CCNS(=O)(=O)c2ccc(Cl)cc2)[nH]c2ccccc12)c1ccc(Cl)cc1 | > 11.9 | > 50 µg/mL | 5.4 µM
2 | O=S(=O)(NCCc1c(C(c2ccc(C(F)(F)F)cc2)c2[nH]c3ccccc3c2CCNS(=O)(=O)c2ccc(Br)cc2)[nH]c2ccccc12)c1ccc(Br)cc1 | > 14.4 | > 50 µg/mL | 3.8 µM
3 | O=[N+]([O-])c1ccc(C(c2[nH]c3ccccc3c2CCNS(=O)(=O)c2ccc(C(F)(F)F)cc2)c2[nH]c3ccccc3c2CCNS(=O)(=O)c2ccc(C(F)(F)F)cc2)cc1 | > 14.4 | > 50 µg/mL | 4 µM
4 | COc1ccc(S(=O)(=O)NCCc2c(C3(c4[nH]c5ccccc5c4CCNS(=O)(=O)c4ccc(OC)cc4)C(=O)Nc4ccccc43)[nH]c3ccccc23)cc1 | > 22.6 | > 50 µg/mL | 2.8 µM
5 | O=S(=O)(NCCc1c(C(c2ccc(Br)cc2)c2[nH]c3ccccc3c2CCNS(=O)(=O)c2ccc(C(F)(F)F)cc2)[nH]c2ccccc12)c1ccc(C(F)(F)F)cc1 | 7.3 | 24.8 µM | 3.4 µM
6 | COc1ccc(S(=O)(=O)NCCc2c(C(c3ccccc3O)c3[nH]c4ccccc4c3CCNS(=O)(=O)c3ccc(OC)cc3)[nH]c3ccccc23)cc1 | > 81.7 | > 50 µg/mL | 0.8 µM
7 | Cc1ccc(S(=O)(=O)NCCc2c(C(c3ccccc3O)c3[nH]c4ccccc4c3CCNS(=O)(=O)c3ccc(C)cc3)[nH]c3ccccc23)cc1 | 3.6 | 14.8 µM | 4.1 µM
8 | O=[N+]([O-])c1cccc(S(=O)(=O)NCCc2c(C(c3ccc(O)cc3)c3[nH]c4ccccc4c3CCNS(=O)(=O)c3cccc([N+](=O)[O-])c3)[nH]c3ccccc23)c1 | > 27.4 | > 50 µg/mL | 2.3 µM
9 | O=S(=O)(NCCc1c(C(c2ccc3c(c2)Cc2ccccc2-3)c2[nH]c3ccccc3c2CCNS(=O)(=O)c2ccc(Cl)cc2)[nH]c2ccccc12)c1ccc(Cl)cc1 | > 6.72 | > 50 µg/mL | 8.8 µM
10 | O=S(=O)(NCCc1c(C(c2ccc(C(F)(F)F)cc2)c2[nH]c3ccccc3c2CCNS(=O)(=O)c2ccc(Cl)cc2)[nH]c2ccccc12)c1ccc(Cl)cc1 | 5.06 | 16.2 µM | 3.2 µM
11 | O=[N+]([O-])c1ccc(C(c2[nH]c3ccccc3c2CCNS(=O)(=O)c2ccc(F)cc2)c2[nH]c3ccccc3c2CCNS(=O)(=O)c2ccc(F)cc2)cc1 | > 18.6 | > 50 µg/mL | 3.5 µM
12 | COc1ccc(S(=O)(=O)NCCc2c(C(c3ccccc3)c3[nH]c4ccccc4c3CCNS(=O)(=O)c3ccc(OC)cc3)[nH]c3ccccc23)cc1 | > 19.1 | > 50 µg/mL | 3.5 µM
13 | O=S(=O)(NCCc1c(C(c2ccc(O)cc2)c2[nH]c3ccccc3c2CCNS(=O)(=O)c2ccc(Cl)cc2)[nH]c2ccccc12)c1ccc(Cl)cc1 | 10.7 | 15 µM | 1.4 µM
14 | O=[N+]([O-])c1ccccc1S(=O)(=O)NCCc1c(C(c2ccccc2O)c2[nH]c3ccccc3c2CCNS(=O)(=O)c2ccccc2[N+](=O)[O-])[nH]c2ccccc12 | > 13.7 | > 50 µg/mL | 4.6 µM
15 | O=C1Nc2ccccc2C1(c1[nH]c2ccccc2c1CCNS(=O)(=O)c1ccc(Cl)cc1)c1[nH]c2ccccc2c1CCNS(=O)(=O)c1ccc(Cl)cc1 | > 7.54 | > 50 µg/mL | 8.3 µM
16 | O=S(=O)(NCCc1c(C(c2ccc(F)cc2)c2[nH]c3ccccc3c2CCNS(=O)(=O)c2ccc(C(F)(F)F)cc2)[nH]c2ccccc12)c1ccc(C(F)(F)F)cc1 | 3.42 | 15.1 µM | 4.4 µM
17 | N#Cc1ccc(C(c2[nH]c3ccccc3c2CCNS(=O)(=O)c2ccc(Cl)cc2)c2[nH]c3ccccc3c2CCNS(=O)(=O)c2ccc(Cl)cc2)cc1 | > 11.6 | > 50 µg/mL | 5.5 µM
18 | N#Cc1ccc(C(c2[nH]c3ccccc3c2CCNS(=O)(=O)c2ccc(F)cc2)c2[nH]c3ccccc3c2CCNS(=O)(=O)c2ccc(F)cc2)cc1 | > 6.8 | > 50 µg/mL | 9.8 µM

Row | Structure (SMILES) | selectivity ratio (aromatase [1]) | IC50 (Vero) | IC50 (Aromatase [2])
19 | O=C1Nc2ccccc2C1(c1[nH]c2ccccc2c1CCNS(=O)(=O)c1ccccc1[N+](=O)[O-])c1[nH]c2ccccc2c1CCNS(=O)(=O)c1ccccc1[N+](=O)[O-] | > 6.22 | > 50 µg/mL | 9.8 µM
20 | O=S(=O)(NCCc1c(C(c2ccc(F)cc2)c2[nH]c3ccccc3c2CCNS(=O)(=O)c2ccc(Br)cc2)[nH]c2ccccc12)c1ccc(Br)cc1 | > 7.61 | > 50 µg/mL | 7.6 µM
21 | O=S(=O)(NCCc1c(C(c2ccccc2O)c2[nH]c3ccccc3c2CCNS(=O)(=O)c2ccc(Cl)cc2)[nH]c2ccccc12)c1ccc(Cl)cc1 | > 15.4 | > 50 µg/mL | 4.2 µM
22 | CCn1c2ccccc2c2ccc(C(c3[nH]c4ccccc4c3CCNS(=O)(=O)c3ccc(Cl)cc3)c3[nH]c4ccccc4c3CCNS(=O)(=O)c3ccc(Cl)cc3)cc21 | > 14.7 | > 50 µg/mL | 3.9 µM
23 | Cc1ccc(S(=O)(=O)NCCc2c(C(c3ccccc3)c3[nH]c4ccccc4c3CCNS(=O)(=O)c3ccc(C)cc3)[nH]c3ccccc23)cc1 | > 5.86 | > 50 µg/mL | 11.9 µM
24 | O=S(=O)(NCCc1c(C(c2ccc(O)cc2)c2[nH]c3ccccc3c2CCNS(=O)(=O)c2ccc(C(F)(F)F)cc2)[nH]c2ccccc12)c1ccc(C(F)(F)F)cc1 | 10.2 | 13.3 µM | 1.3 µM
25 | O=S(=O)(NCCc1c(C(c2ccc(Br)cc2)c2[nH]c3ccccc3c2CCNS(=O)(=O)c2ccc(Cl)cc2)[nH]c2ccccc12)c1ccc(Cl)cc1 | 16.6 | 44.9 µM | 2.7 µM
26 | O=[N+]([O-])c1ccc(S(=O)(=O)NCCc2c(C(c3ccccc3O)c3[nH]c4ccccc4c3CCNS(=O)(=O)c3ccc([N+](=O)[O-])cc3)[nH]c3ccccc23)cc1 | > 22.5 | > 50 µg/mL | 2.8 µM
27 | O=[N+]([O-])c1ccc(S(=O)(=O)NCCc2c(C(c3ccccc3)c3[nH]c4ccccc4c3CCNS(=O)(=O)c3ccc([N+](=O)[O-])cc3)[nH]c3ccccc23)cc1 | > 5.73 | > 50 µg/mL | 11.2 µM
28 | COc1ccc(S(=O)(=O)NCCc2c(C(c3cc(OC)c(O)c(OC)c3)c3[nH]c4ccccc4c3CCNS(=O)(=O)c3ccc(OC)cc3)[nH]c3ccccc23)cc1 | > 24.2 | > 50 µg/mL | 2.5 µM
29 | COc1ccc(S(=O)(=O)NCCc2c(C(c3ccc(O)cc3)c3[nH]c4ccccc4c3CCNS(=O)(=O)c3ccc(OC)cc3)[nH]c3ccccc23)cc1 | > 93.4 | > 50 µg/mL | 0.7 µM
30 | O=S(=O)(NCCc1c(C(c2ccc(C(F)(F)F)cc2)c2[nH]c3ccccc3c2CCNS(=O)(=O)c2ccc(C(F)(F)F)cc2)[nH]c2ccccc12)c1ccc(C(F)(F)F)cc1 | > 24.4 | > 50 µg/mL | 2.3 µM
31 | O=[N+]([O-])c1ccc(C(c2[nH]c3ccccc3c2CCNS(=O)(=O)c2ccc(Br)cc2)c2[nH]c3ccccc3c2CCNS(=O)(=O)c2ccc(Br)cc2)cc1 | > 20.8 | > 50 µg/mL | 2.7 µM
32 | O=C1Nc2ccccc2C1(c1[nH]c2ccccc2c1CCNS(=O)(=O)c1cccc([N+](=O)[O-])c1)c1[nH]c2ccccc2c1CCNS(=O)(=O)c1cccc([N+](=O)[O-])c1 | > 5.13 | > 50 µg/mL | 11.9 µM
33 | N#Cc1ccc(C(c2[nH]c3ccccc3c2CCNS(=O)(=O)c2ccc(C(F)(F)F)cc2)c2[nH]c3ccccc3c2CCNS(=O)(=O)c2ccc(C(F)(F)F)cc2)cc1 | > 3.85 | > 50 µg/mL | 15.3 µM
34 | O=[N+]([O-])c1cccc(S(=O)(=O)NCCc2c(C(c3ccccc3O)c3[nH]c4ccccc4c3CCNS(=O)(=O)c3cccc([N+](=O)[O-])c3)[nH]c3ccccc23)c1 | > 37 | > 50 µg/mL | 1.7 µM
35 | Cc1c2ccncc2c(C)c2c1[nH]c1ccccc12 [ELLIPTECINE] | – | 1.94 µM | –
